These results are taken from article PMC6659632, “Preferential phosphatidylinositol 5-phosphate binding contributes to a destabilization of the VHS domain structure of Tom1” (Scientific Reports, 2019).

Type in all cases: binding
Assay [1] has as its target T1, Tom1 VHS domain (Homo sapiens, UniProt O60784).
T1 construct: GST fusion from E. coli Rosetta, GST cut off with thrombin; monomer
Kind of assay: isothermal titration calorimetry. An excerpt:
isothermal titration calorimetry on Tom1 VHS domain
In general terms: ITC needs no label: the signal is the heat of the interaction.

Assay [2] addresses T1, Tom1 VHS domain. Kind of assay: thermal denaturation by far-UV CD at […] nm. The following applies: molar excess of lipid, nonreducing, 5 mM sodium citrate pH 7.3, 50 mM KF; free protein Tm 47.5 ± 0.1 °C.
Assay [3] addresses T1, Tom1 VHS domain. Briefly: thermal denaturation by far-UV CD at […] nm. Conditions: pre-incubated with excess lipid, nonreducing, 5 mM sodium citrate pH 7.3, 50 mM KF; free protein Tm 47.5 ± 0.1 °C.

Read-outs that look alike come from different tables or passages of the source.

T1 sequence (O60784 1-140 limits assumed): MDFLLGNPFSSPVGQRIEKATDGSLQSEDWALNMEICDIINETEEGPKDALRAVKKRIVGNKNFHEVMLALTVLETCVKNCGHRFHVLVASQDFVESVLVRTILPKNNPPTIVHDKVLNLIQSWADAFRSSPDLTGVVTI

What is called Kd is a measure of binding affinity in units of concentration. A higher Kd goes with lower affinity. On to `O=P(O)(O)O[C@@H]1[C@@H](O)[C@H](OP(=O)(O)O)[C@H](O)[C@H](O)[C@H]1O` [Ins(1,5)P2], for which the affinity at Tom1 VHS domain [1], expressed as Kd, was 214 ± 67.2 µM.
`CCCCCCCC(=O)OC[C@H](COP(=O)([O-])OCC[N+](C)(C)C)OC(=O)CCCCCCC` [PtdCho]: the “Tm (°C) / N to I/D” value at Tom1 VHS domain [2] was determined as 43.0 ± 0.1 °C.
On to `CCCCCCCC(=O)OC[C@H](COP(=O)(O)O[C@H]1[C@H](O)[C@@H](OP(=O)(O)O)[C@H](O)[C@@H](O)[C@H]1O)OC(=O)CCCCCCC` [PtdIns5P], for which the “Tm (°C) / N to I/D” value at Tom1 VHS domain [2] came out at 37.6 ± 0.3 °C. Also, at Tom1 VHS domain [1] (high-affinity site of two-site fit, nonreducing, 20 mM HEPES pH 7.4, 150 mM KCl, 25 °C), the affinity, expressed as Kd, was 3.1 ± 0.6 µM.
On Tom1 VHS domain [3], PtdIns came in with a mid-transition temperature of 34 °C.
